# Source: EP0076452A2, “Cephalosporin derivatives, process for their preparation and pharmaceutical compositions containing them” (priority 1981, dated 1983)
# Like-named read-outs stand apart in the source and are kept apart here.
# Experiments:
# [1] = test system: Staphylococcus aureus 10 B; experiment: Chemotherapeutic efficacy in vivo against systemic infection in mice (ED50); parameters: species or system Maus; settings: for ED50: Staphylococcus aureus, 10B, sc, read-out: ED50 Staphylococcus aureus 10 B; for ED50 Staphylococcus aureus 10 B: s.c.
# Source text: (§1) B. Die chemotherapeutische Wirksamkeit in vivo gegen systemische Infektionen in weiblicher SPF, MF2 Mäusen wurde nach der Methode von Zak, 0. et al., 1979, Drugs Exptl. Clin. Res. 5, 45-59, ermittelt. Die gefundenen ED50-Werte in Milligramm Substanz pro Kilogramm Maus (mg/kg) für eine Anzahl von Mikroorganismen werden für die subcutan (s.c.) applizierten Testverbindungen in der Tabelle 2 angegeben.
# Escherichia coli 205 [2] = experiment: as above; parameters: species or system Maus; settings: for ED50: Escherichia coli, 205, sc, read-out: ED50 Escherichia coli 205
# Source text: as §1
# Proteus rettgeri 856 = experiment: Antibiotic activity in vitro, agar dilution method in DST agar (MIC); format: cell-based; settings: for MIC Proteus rettgeri 856: in vitro
# Source text: (§2) A. Die antibiotische Aktivität der Testverbindungen in vitro wurde durch die Agarverdünnungsmethode nach Ericsson, H.M., und Sherris, S.C., 1971, Acta Path. Microb. Scand. Section B, Suppl. No. 217, Bd. 1-90, in DST Agar ermittelt. Die gefundenen, das Wachstum der Testorganismen noch hemmenden Minimalkonzentrationen (MIC = minimum inhibiting concentrations) werden in Mikrogramm pro Mililiter ([…]) für die geprüften Verbindungen in der Tabelle 1 angegeben.
# [3] = test system: Streptococcus pyogenes Aronson; experiment: as above; format: cell-based; settings: for MIC: Streptococcus pyogenes, read-out: MIC Streptococcus pyogenes Aronson
# Source text: as §2
# Escherichia coli 205 [4] = experiment: as above; format: cell-based; settings: for MIC Escherichia coli 205: in vitro
# Source text: as §2
# [5] = systemic infection, female SPF MF2 mice
# [6] = s.c., systemic infection, female SPF MF2 mice
# [7] = Providencia rettgeri, 856, in vitro, agar dilution, DST Agar, read-out: MIC Proteus rettgeri 856
# [8] = in vitro, agar dilution, DST Agar
# [9] = Escherichia coli, 205, in vitro, agar dilution, DST Agar, read-out: MIC Escherichia coli 205
# [10] = agar dilution, DST Agar, listed as 8
SMILES,"ED50 [1, 5]",ED50 (Escherichia coli 205 [2]; [6]),MIC (Proteus rettgeri 856; [7]),"MIC [3, 8]",MIC (Escherichia coli 205 [4]; [9]),other results
CO/N=C(\C(=O)N[C@@H]1C(=O)N2C(C(=O)O)=C(CSc3nnnn3CCN(C)C)CS[C@H]12)c1coc(N)n1 [Testverbindung 3],28 mg/kg,1.7 mg/kg,0.02 µg/mL,0.02 µg/mL,0.1 µg/mL,
CO/N=C(\C(=O)N[C@@H]1C(=O)N2C(C(=O)O)=CCS[C@H]12)c1coc(N)n1 [Testverbindung 14],30 mg/kg,9 mg/kg,,0.01 µg/mL,0.2 µg/mL,
CO/N=C(/C(=O)N[C@@H]1C(=O)N2C(C(=O)O)=C(CSc3nnnn3CCN(C)C)CS[C@H]12)c1coc(N)n1 [Testverbindung 4],,,2 µg/mL,0.05 µg/mL,8 µg/mL,
CO/N=C(\C(=O)N[C@@H]1C(=O)N2C(C(=O)O)=C(CSc3nnnn3C)CS[C@H]12)c1coc(N)n1 [Testverbindung 1],12 mg/kg,1.5 mg/kg,,,0.1 µg/mL,
CC(=O)OCC1=C(C(=O)O)N2C(=O)[C@@H](NC(=O)/C(=N\O)c3coc(N)n3)[C@H]2SC1 [Testverbindung 6],1.35 mg/kg,1 mg/kg,0.02 µg/mL,,0.1 µg/mL,
"CO/N=C(\C(=O)N[C@@H]1C(=O)N2C(C(=O)O)=C(CSc3nnnn3CCN(C)C)CS[C@H]12)c1coc(N)n1.Cl.Cl [Testverbindung 3, 3-[1-(2-Dimethylaminoäthyl)-1H-tetrazol-5-ylthiomethyl]-7ß-[2-(2-amino-4-oxazolyl)-2-Z-methoxyiminoacetylamino]-3-cephem-4-carbonsäure-dihydrochlorid]",,,,,,"ED50 Staphylococcus aureus 10 B [1, 5]: >30 mg/kg; ED50 Escherichia coli 205 (Escherichia coli 205 [2]; [6]): >30 mg/kg; MIC Proteus rettgeri 856 (Proteus rettgeri 856; agar dilution, DST Agar): 0,01 µg/ml; MIC Streptococcus pyogenes Aronson [3, 8]: 0,05 µg/ml; MIC Escherichia coli 205 (Escherichia coli 205 [4]; agar dilution, DST Agar): 0,2 µg/ml"
CO/N=C(\C(=O)N[C@@H]1C(=O)N2C(C(=O)[O-])=C(C[n+]3ccc(C(N)=O)cc3)CS[C@H]12)c1coc(N)n1 [Testverbindung 5],,,,,,"ED50 Staphylococcus aureus 10 B [1, 5]: 5,5 mg/kg; ED50 Escherichia coli 205 (Escherichia coli 205 [2]; [6]): 2,4 mg/kg; MIC Proteus rettgeri 856 (Proteus rettgeri 856; agar dilution, DST Agar): 0,02 µg/ml; MIC Escherichia coli 205 (Escherichia coli 205 [4]; agar dilution, DST Agar): 0,2 µg/ml"
CC(C)(ON=C(C(=O)NC1C(=O)N2C(C(=O)[O-])=C(C[n+]3ccc(C(N)=O)cc3)CSC12)c1coc(N)n1)C(=O)O (stereo not shown) [Testverbindung 10],> 30 mg/kg,> 30 mg/kg,0.2 µg/mL,0.02 µg/mL,4 µg/mL,
"CC(C)(ON=C(C(=O)NC1C(=O)N2C(C(=O)[O-])=C(C[n+]3ccccc3)CSC12)c1coc(N)n1)C(=O)O (stereo not shown) [Testverbindung 9, 3-Pyridiniomethyl-7ß-[2-(2-amino-4-oxazolyl)-2-Z-(2-carboxy-prop-2-yloxyimino)-acetylamino]-3-cephem-4-carboxylat-natriumsalz]",> 30 mg/kg,4.4 mg/kg,0.01 µg/mL,0.2 µg/mL,0.2 µg/mL,
"CO/N=C(\C(=O)N[C@@H]1C(=O)N2C(C(=O)[O-])=C(C[n+]3ccc(C(N)=O)cc3)CS[C@H]12)c1coc(N)n1 [Testverbindung 5, 3-(4-Carbamoylpyridiniomethyl)-7β-[2-(2-amino-4-oxazolyl)-2-Z-methoxyiminoacetylamino]-3-cephem-4-carboxylat]",,,,0.02 µg/mL,,"ED50 Staphylococcus aureus 10 B ([1]; systemic infection, female SPF MF2 mice, listed as 8): >30 mg/kg; ED50 Escherichia coli 205 (Escherichia coli 205 [2]; s.c., systemic infection, female SPF MF2 mice, listed as 8): >30 mg/kg; MIC Proteus rettgeri 856 (Proteus rettgeri 856; [10]): 1 µg/mL; MIC Escherichia coli 205 (Escherichia coli 205 [4]; [10]): 4 µg/mL"
CC(C)(O/N=C(\C(=O)N[C@@H]1C(=O)N2C(C(=O)[O-])=C(C[n+]3ccccc3)CS[C@H]12)c1coc(N)n1)C(=O)O [Testverbindung 9],> 30 mg/kg,5.6 mg/kg,0.2 µg/mL,0.5 µg/mL,1 µg/mL,
CO/N=C(\C(=O)N[C@@H]1C(=O)N2C(C(=O)O)=C(COC(C)=O)CS[C@H]12)c1coc(N)n1 [Testverbindung 13],5 mg/kg,1 mg/kg,,0.01 µg/mL,0.1 µg/mL,
"CON=C(C(=O)NC1C(=O)N2C(C(=O)[O-])=C(C[n+]3ccc(C(=O)O)cc3)CSC12)c1coc(N)n1 (stereo not shown) [Testverbindung 17, 3-(4-Carboxylatpyridiniomethyl)-7ß-[2-(2-amino-4-oxazolyl)-2-Z-methoxyiminoacetylamino]-3-cephem-4-carboxylat-natriumsalz]",5.5 mg/kg,2 mg/kg,,0.02 µg/mL,0.5 µg/mL,
"CON=C(C(=O)NC1C(=O)N2C(C(=O)[O-])=C(C[n+]3cccc(Cl)c3)CSC12)c1coc(N)n1 (stereo not shown) [Testverbindung 16, 3-(3-Chlorpyridiniomethyl)-7ß-[2-(2-amino-4-oxazolyl)-2-Z-methoxyiminoacetylamino]-3-cephem-4-carboxylat]",,,,,,"ED50 [1]: 30 mg/kg; ED50 (Escherichia coli 205 [2]): 14 mg/kg; MIC (Proteus rettgeri 856; Providencia rettgeri, 856, read-out: MIC Proteus rettgeri 856): 0.1 µg/mL; MIC [3]: 0.2 µg/mL; MIC (Escherichia coli 205 [4]; Escherichia coli, 205, read-out: MIC Escherichia coli 205): 8 µg/mL"
CO/N=C(\C(=O)N[C@@H]1C(=O)N2C(C(=O)O)=C(CSc3nnnn3CC(=O)O)CS[C@H]12)c1coc(N)n1 [Testverbindung 2],55 mg/kg,0.63 mg/kg,,0.1 µg/mL,0.5 µg/mL,
"CO/N=C(\C(=O)N[C@@H]1C(=O)N2C(C(=O)OCOC(=O)C(C)(C)C)=C(COC(N)=O)CS[C@H]12)c1coc(N)n1 [Beispiel 18, 3-Carbamoyloxymethyl-7ß-[2-(2-amino-4-oxazolyl)-2-Z-methoxyimino-acetylamino]-3-cephem-4-carbonsäure-pivaloyloxymethylester]",,,,,,"ED50 Staphylococcus aureus 10 B [1, 5]: 8 mg/kg; ED50 Escherichia coli 205 (Escherichia coli 205 [2]; [6]): >30 mg/kg; MIC Proteus rettgeri 856 (Proteus rettgeri 856; agar dilution, DST Agar): 0,01 µg/ml; MIC Streptococcus pyogenes Aronson [3, 8]: 0,02 µg/ml; MIC Escherichia coli 205 (Escherichia coli 205 [4]; agar dilution, DST Agar): 0,1 µg/ml"
CC(C)(O/N=C(\C(=O)N[C@@H]1C(=O)N2C(C(=O)[O-])=C(C[n+]3ccc(C(N)=O)cc3)CS[C@H]12)c1coc(N)n1)C(=O)O [Testverbindung 10],> 30 mg/kg,1.6 mg/kg,0.5 µg/mL,0.2 µg/mL,0.5 µg/mL,
CO/N=C(\C(=O)N[C@@H]1C(=O)N2C(C(=O)[O-])=C(C[n+]3ccc(C(=O)O)cc3)CS[C@H]12)c1coc(N)n1 [Testverbindung 17],> 30 mg/kg,,0.02 µg/mL,0.05 µg/mL,0.5 µg/mL,
